# According to patent US4855426A, “Process of preparing 1,5-epoxy-2,3,4,5-tetrahydro-1H-3-benzazepins” (Ortho Pharmaceutical Corporation, priority 1988, dated 1989):
# Where a name gives a salt, the structure may show the parent alone. Read-outs that look alike come from different tables or passages of the source.
# How the values were obtained:
# Lesions = assay: Cytoprotection, ethanol (necrotizing agent) induced lesions in rats; format: in vivo, male Charles River Sprague Dawley derived rats; details: oral, 50% EtOH one hour later
# Protocol: The cytoprotective activity of the compounds was tested using a modification of the method of Robert, A., et al., Gastroenterology 77, 433 (1979). Basically, male Charles River Sprague Dawley derived rats weighing between 140 and 220 g were fasted overnight, but allowed water ad libitum. They were deprived of water during the experiment, however. The rats were weighed and pretreated orally with the test compound in a dose volume of 1 ml/kg. One hour later, the necrotizing agent was administered orally, usually 50% EtOH, in a dose volume of 1 ml/animal. After an additional hour, the rats were sacrificed with CO2, the stomachs removed, inflated with distilled water, opened along the greater curvature and laid out on a flat surface. The presence of mucosal bleeding and incidence of lesions were noted, and after wiping off the mucosa the presence of submucosal bleeding and incidence of lesions were also noted.
# parietal cells = assay: Isolated Parietal Cell Assay, 14C-aminopyrine accumulation in histamine stimulated parietal cells; format: cell-based, rabbit; details: Oryctolagus cuniculus, 20 min, read-out: IC50, inhibition of 14C-AP accumulation in the histamine stimulated parietal cell
# Protocol: The isolated parietal cell assay was conducted using the procedures of Batzri, S., et al., Biochemica et Biophysica Acta 508, 328 (1978) and Soll, A. H., Am. J. Physiol. 238, G366 (1980). Basically, parietal cells were isolated from the fundic mucosa of rabbit stomachs by a four-stage collagenase digestion process. The supernatant fraction from the last two stages of this process contain the individual parietal cells. This cell suspension was centrifuged and reconstituted in a modified Hank's buffer to contain 2-3×10^6 cells/ml. […] The accumulation was stimulated by histamine and was blocked by H2 antagonists. The cells were incubated with 0.5×10^6 cpm ^14 C-AP, with various concentrations of histamine, 1×10^-5 M isobutylmethylxanthine, and the test compound added in a 20 μl volume of buffer or DMSO. The flasks were incubated in a shaking water bath at 37° C. for 20 minutes. Two aliquots were then taken from each flask and cell pellets were collected by centrifugation. The pellets were solubilized with Protosol (New England Nuclear) and radioactivity determined by liquid scintillation spectrometry. Data is presented as the IC50, the concentration of compound required to inhibit ^14 C-AP accumulation in the histamine stimulated parietal cell by 50%.
# Gastric Secretion = assay: Gastric Secretion, betazole stimulated, dogs with total gastric fistulas; format: in vivo, Female dogs; details: gastric fistula dogs
# Source text: This is a secondary test used to follow-up compounds which have shown gastric antisecretory activity in the four-hour pylorus ligated rat (Example 42). Female dogs were surgically prepared with total gastric fistulas and allowed to recover.
# acid output = assay: Gastric Secretion, inhibition of acid output in pylorus ligated rats; format: in vivo, male Charles River Sprague Dawley derived rats; details: Rattus norvegicus, 4 h, intraduodenal, four hours
# Protocol: (§1) The inhibitory activity of the compounds on acid output was tested using pylorus ligation in a modification of the procedure of Shay, H., et al., Gastroenterology 26, 906 (1954). Basically, male Charles River Sprague Dawley derived rats weighing 150-300 grams were deprived of food but not water for 18-24 hours prior to use. Water was withheld during the experiment, however. The rats were weighed, anesthetized with ether and the pylorus ligated according to the method of Shay et al., supra. Treatment or vehicle control was then administered intraduodenally (i.d.). Rats were housed two/cage and sacrificed with CO2 four hours after ligation. The stomachs were removed, rinsed, and contents emptied into a graduated centrifuge tube. The tubes were centrifuged, the volume of gastric juice recorded, and any samples obviously contaminated by feces, food or blood were eliminated. A 1 ml aliquot of gastric juice was titrated with 0.1N NaOH to a pH of 7.0-7.4. The volume of gastric juice secreted, the acid concentration, and the product of the volume times the concentration, i.e., the total amount of acid secreted, were measured.
# Pepsin = assay: In Vivo Pepsin Assay, radioenzymatic, gastric juice of pylorus ligated rat
# Protocol: as §1
# Pepsin activity was measured by a radioenzymatic assay. An aliquot of a 1:1000 dilution of rat gastric juice was incubated with the substrate solution (containing methyl-^14 C-methylated methemoglobin and nonradioactive methemoglobin in 10 mM sodium citrate buffer, pH 3.0) for a period of ten minutes at 37° C. After this time, trichloroacetic acid was added to stop the reaction and to precipitate the unreacted substrate. After removal of the precipitate by centrifugation, an aliquot of the supernatant fraction is quantitated for radioactivity by liquid scintillation spectrometry. Rat gastric juice samples were obtained after drug administration in the pylorus ligated rat (Example 42). Data is presented as the percent inhibition of pepsin activity in drug treated gastric samples compared to enzyme activity observed for control gastric juice samples. […]
# [1] = rabbit parietal cells, 37° C., 20 minutes, 1×10^-5 M isobutylmethylxanthine
compound,measurement,setting,value
"FC(F)(F)c1cccc(C23CNCC(O2)c2ccccc23)c1 (stereo not shown) [Example 2, 1,5-Epoxy-1-[(3-trifluoromethyl)phenyl]-1,2,4,5-tetrahydro-3-benzazepin oxalate]","% Inhibition of Lesions, Mucosa",Lesions; 25 mg/kg,56%
same,"% Inhibition of Lesions, Submucosa",Lesions; 25 mg/kg,56%
same,IC50,parietal cells,3.5 µM
same,% Inhibition of Gastric Secretion,Gastric Secretion; 2 mg/kg (ig),53%
same,% Inhibition of Gastric Secretion,Gastric Secretion; 40 mg/kg (route not given),75%
same,inhibition in vivo at 25 mg/kg,acid output,71%
"C=CCN1CC2OC(C1)c1cc(Cl)ccc12 (stereo not shown) [Example 13, 3-Allyl-7-chloro-1,5-epoxy-1,2,4,5-tetrahydro-3-benzazepin oxalate.1/4H2 O]",inhibition in vivo at 50 mg/kg,acid output,33%
"c1ccc(CN2CC3OC(C2)c2ccccc23)cc1 [Example 18, 3-Benzyl-1,5-epoxy-1,2,4,5-tetrahydro-3-benzazepin oxalate]",inhibition in vivo at 50 mg/kg,acid output,23%
"FC(F)(F)c1cccc(C23CN(CCCN4CCOCC4)CC(O2)c2ccccc23)c1 (stereo not shown) [Example 3, 1,5-Epoxy-3-[N-(3-morpholinopropyl)-1-[(3-trifluoromethyl)phenyl]-1,2,4,5-tetrahydro-3-benzazepin dioxalate]",inhibition in vivo at 25 mg/kg,acid output,48%
"Clc1ccc2c(c1)C1CNCC2O1 (stereo not shown) [Example 14, 7-Chloro-1,5-epoxy-1,2,4,5-tetrahydro-3-benzazepin oxalate.1/4H2 O]",inhibition in vivo at 50 mg/kg,acid output,40%
"c1ccc(C23CN(CCCOc4cccc(CN5CCCCC5)c4)CC(O2)c2ccccc23)cc1 (stereo not shown) [Example 11, 3-[3-[[3-(1-Piperidinyl)methyl]methyl]phenoxy]propyl]-1,5-epoxy-1-phenyl-1,2,4,5-tetrahydro-3-benzazepin dioxalate hemihydrate]","% Inhibition of Lesions, Mucosa",Lesions; 40 mg/kg,80%
same,"% Inhibition of Lesions, Submucosa",Lesions; 40 mg/kg,100%
same,IC50,parietal cells; [1],3.5 µM
same,inhibition in vivo at 40 mg/kg,acid output,39%
same,% Inhibition of Pepsin Activity,Pepsin; 40 mg/kg,30%
"COc1cc2c(cc1OC)C1CN(CCSCc3ccc(CN(C)C)o3)CC2O1 [Example 36, 3-[2-[[[5-(Dimethylamino)methyl-2-furanyl]methylthio]ethyl]-1,5-epoxy-7,8-dimethoxy-1,2,4,5-tetrahydro-3-benzazepin dioxalate monohydrate]",IC50,parietal cells; [1],30 µM
same,inhibition in vivo at 20 mg/kg,acid output,26%
"CN(C)Cc1ccc(CSCCN2CC3OC(c4ccccc4)(C2)c2ccccc23)o1 (stereo not shown) [Example 12, 3-[2-[[[5-(Dimethylamino)methyl-2-furanyl]methylthio]ethyl]-1,5-epoxy-1-phenyl-1,2,4,5-tetrahydro-3-benzazepin dioxalate hemihydrate]","% Inhibition of Lesions, Mucosa",Lesions; 10 mg/kg,20%
same,"% Inhibition of Lesions, Submucosa",Lesions; 10 mg/kg,11%
same,IC50,parietal cells; [1],0.25 to 0.37 µM
"CN(C)Cc1ccc(CSCCN2CC3OC(c4cccc(C(F)(F)F)c4)(C2)c2ccccc23)o1 (stereo not shown) [Example 5, 3-[2-[[[5-(Dimethylamino)methyl-2-furanyl]methylthio]ethyl]-1,5-epoxy-1-[3-trifluoromethyl)phenyl-1,2,4,5-tetrahydro-3-benzazepin dioxalate]","% Inhibition of Lesions, Mucosa",Lesions; 10 mg/kg,10%
same,"% Inhibition of Lesions, Submucosa",Lesions; 10 mg/kg,30%
same,IC50,parietal cells; [1],1 to 1.3 µM
same,inhibition in vivo at 20 mg/kg,acid output,46%
same,% Inhibition of Pepsin Activity,Pepsin; 20 mg/kg,28-43%
"c1ccc(C23CNCC(O2)c2ccccc23)cc1 (stereo not shown) [Example 7, 1,5-Epoxy-1-phenyl-1,2,4,5-tetrahydro-3-benzazepin]",inhibition in vivo at 50 mg/kg,acid output,68%
"FC(F)(F)c1cccc(C23CN(CCCOc4cccc(CN5CCCCC5)c4)CC(O2)c2ccccc23)c1 (stereo not shown) [Example 4, 3-[3-[[3-(1-Piperidinyl)methyl]phenoxy]propyl]-1,5-epoxy-1-(3-trifluoromethyl)phenyl-1,2,4,5-tetrahydro-3-benzazepin dioxalate monohydrate]","% Inhibition of Lesions, Mucosa",Lesions; 10 mg/kg,70%
same,"% Inhibition of Lesions, Submucosa",Lesions; 10 mg/kg,80%
same,"% Inhibition of Lesions, Mucosa",Lesions; 20 mg/kg,88%
same,"% Inhibition of Lesions, Submucosa",Lesions; 20 mg/kg,100%
same,IC50,parietal cells; [1],4.5 µM
same,% Inhibition of Gastric Secretion,Gastric Secretion; 7.3 mg/kg (iv),85%
same,% Inhibition of Gastric Secretion,Gastric Secretion; 20 mg/kg (ig),48%
same,inhibition in vivo at 40 mg/kg,acid output,46%
same,% Inhibition of Pepsin Activity,Pepsin; 40 mg/kg,52%
"c1ccc2c(c1)C1CNCC2(C2OCCO2)O1 (stereo not shown) [Example 30, 1-(1,3-Dioxolan-2-yl)-1,5-epoxy-1,2,4,5-tetrahydro-3-benzazepin]",inhibition in vivo at 50 mg/kg,acid output,23%
"c1ccc2c(c1)C1CN(CCCN3CCOCC3)CC2O1 [Example 22, 1,5-Epoxy-3-[N-(3-morpholinopropyl)]-1,2,4,5-tetrahydro-3-benzazepin dioxalate]",inhibition in vivo at 50 mg/kg,acid output,33%
